What all share (type): in vivo
Series [1] has as its system rats. As to the kind of experiment: Toxicity in rats, administration for 17 days. The note with it: 10 μg/rat for 17 days. An excerpt: (§1) The toxicity data of Asu^6, desGly^10 -GnRH-ethylamide are as follows: […]
The subject of another series is LH hormone. Kind of series: LH concentration in the serum of male mice after subcutaneous administration (radioimmunoassay). The note with it: dose 200 ng/mouse; for LH serum level in mice after the treatments, 2 hours: 2 hours after treatment; for LH serum level in mice after the treatments, 4 hours: 4 hours after treatment; for LH serum level in mice after the treatments, 6 hours: 6 hours after treatment. On the procedure:
The common feature of the superactive GnRH analogues is that they liberate many times the amount of LH hormone than the natural GnRH could do and the duration of their effect is also much longer. In order to illustrate the above statements the activity for liberating LH hormone of the natural GnRH analogues and some superactive and some representatives of the GnRH analogues of formula I according to the invention are shown in FIG. 1. The experiments were carried out on male mice, the active ingredient was administered subcutaneously and the LH content of the serum of the blood of the animals was measured by radioimmunoassay.
Table I summarizes the biological data of a preferable representative of the GnRH analogues of formula I, Asu^6 -desGly^10 -GnRH-ethylamide.

For series [2], the system named is sexually matured female rabbits. As to the kind of experiment: Induction of ovulation in angora rabbit. To be noted: single dose of 1.5 μg/rabbit, thereafter artificially inseminated. As for the experimental part:
(d) Induction of ovulation in angora rabbit
The sexually matured female rabbits were administered with a single does of 1.5 μg/rabbit, thereafter artificially inseminated. 90% of the animals became pregnant.

For series [3], the system named is sexually mature female rats. As to the kind of experiment: Inhibition of ovulation in rats. To be noted: 0.5 μg/rat for 17 days. On the procedure:
(c) Inhibition of ovulation in rats
The compound was administered for 17 days in a dose of 0.5 μg/rats to sexually mature female rats. The inhibition of ovulation was 100%. The experimental method is described in B.B.R.C. 118, 351 […] Kovacs et al.

For series [4], the system named is rats. Kind of series: Toxicity in rats, single dose. The note with it: single dose of 10 mg/kg.
Description: as §1

For the substance “Glp-His-Trp-Ser-Tyr-Asu-Leu-Arg-Pro-ethylamide [Asu^6,desGly^10 -GnRH-ethylamide]”, the toxicity entry in the series on rats [1] is “atoxic”. Besides, in the series on LH hormone, the “LH serum level in mice after the treatments, 2 hours” value turned out to be 958.4 ng/mL; the “LH serum level in mice after the treatments, 4 hours” value is 702.3 ng/mL; the “LH serum level in mice after the treatments, 6 hours” value stood at 216.2 ng/mL. Further, the “animals that became pregnant” value in series [2] stood at 90%. The substance further gave an inhibition of ovulation in series [3] of 100%. The toxicity entry in the series on rats [4] is “did not prove to be toxic”.
With “GnRh: native gonadoliberine peptide hormone of hypothalamic origin [reference compound]”, in the series on LH hormone, the “LH serum level in mice after the treatments, 2 hours” value is 85.2 ng/mL; the “LH serum level in mice after the treatments, 4 hours” value was found to be 81.4 ng/mL; the “LH serum level in mice after the treatments, 6 hours” value was 87.0 ng/mL.
